In ChEMBL document CHEMBL1127935, “Synthesis and antiproliferative activity of 15-oxoprostaglandins: Contribution of the -chain enone group to cytotoxicity” (Bioorg Med Chem Lett, 1994):

Tested on: K562
Assay: In vitro antiproliferative activity was measured on human leukemia K562 cells
Type: functional, cell-based

IC50 [µM] | Compound
6.6 | CCCCCC(=O)/C=C/[C@]1(O)CC(=O)C=C1C/C=C\CCCC(=O)OC
28 | CCCCCC(=O)/C=C/[C@H]1[C@H](O)CC(=O)[C@@H]1C/C=C\CCCC(=O)OC
61 | CCCCCC(=O)/C=C/C1[C@H](O)C[C@H](O)[C@@H]1C/C=C\CCCC(=O)OC (stereo not given in full)
99 | CCCCC[C@H](O)/C=C/C1[C@H](O)C[C@H](O)[C@@H]1C/C=C\CCCC(=O)OC (stereo not given in full)
201 | CCCCC[C@H](O)/C=C/[C@]1(O)C[C@@H](O)C=C1C/C=C\CCCC(=O)OC
41 | CCCCC[C@H](O)/C=C/C1[C@H](O)CC(=O)[C@@H]1C/C=C\CCCC(=O)OC (stereo not given in full)
20 | CCCCCC(=O)/C=C/[C@]1(O)C[C@@H](O)C=C1C/C=C\CCCC(=O)OC
362 | CCCCCC(=O)/C=C/C1[C@H](O)C[C@H](O)[C@@H]1C/C=C\CCCC(=O)O (stereo not given in full)
63 | CCCCC[C@H](O)/C=C/[C@H]1[C@H](O)CC(=O)[C@@H]1C/C=C\CCCC(=O)O [DINOPROSTONE]
> 700 | CCCCC[C@H](O)/C=C/[C@@H]1[C@@H](C/C=C\CCCC(=O)O)[C@@H](O)C[C@H]1O [DINOPROST]
